Laboratory results taken from publication PMC13052201, “Positional scanning and computational modeling reveal determinants of legumain transpeptidase activity” (Protein Science : A Publication of the Protein Society, 2026).
Where a SMILES comes first, the peptide text is derived from it. The star is where a group is joined. AMC = Cc1cc(=O)oc2cc(N*)ccc12; Cbz = O=C(OCc1ccccc1)*

Key:
human legumain (hLEG) = target: T1, human legumain (hLEG) (Homo sapiens, UniProt Q99538); assay: Enzyme kinetic assay with fluorogenic AMC substrates, hLEG; format: biochemical; details: 2 nM hLEG; for Km: 50 mM citric acid pH 5.5, 100 mM NaCl, 0.05% Tween-20, 37°C, ex 380/em 460 nm, Michaelis-Menten (Z-AAN-AMC) or substrate inhibition model (Z-VAN-AMC)
T1 construct: inferred from the Ni-NTA purification of the proenzyme; made in house; host or cells: LEXSY P10 cells (Leishmania tarentolae expression system), secreted into the supernatant
T1 sequence (Q99538 18-323 limits assumed): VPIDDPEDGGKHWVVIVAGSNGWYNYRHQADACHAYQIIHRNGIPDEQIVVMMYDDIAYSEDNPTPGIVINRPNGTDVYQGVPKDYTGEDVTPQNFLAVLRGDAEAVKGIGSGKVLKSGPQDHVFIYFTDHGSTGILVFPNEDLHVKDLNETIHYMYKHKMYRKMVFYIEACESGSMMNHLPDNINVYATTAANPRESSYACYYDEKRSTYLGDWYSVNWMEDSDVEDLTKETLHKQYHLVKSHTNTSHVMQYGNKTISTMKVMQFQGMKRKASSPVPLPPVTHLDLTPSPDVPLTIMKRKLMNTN
Experimental: K m values for the substrates Z‐AAN‐AMC (benzyloxycarbonyl‐Ala‐Ala‐Asn‐7‐amino‐4‐methylcoumarin) and Z‐VAN‐AMC (benzyloxycarbonyl‐Val‐Ala‐Asn‐7‐amino‐4‐methylcoumarin) toward hLEG were determined in 50 mM citric acid buffer (pH 5.5) containing 100 mM NaCl and 0.05% Tween‐20. Reactions were carried out at 37°C with 2 nM hLEG. Substrate concentrations ranged from 100 to 0.787 μM for Z‐AAN‐AMC and from 75 to 0.28 μM for Z‐VAN‐AMC.
Reactions were initiated by addition of the enzyme, and fluorescence was monitored in a microplate reader (CLARIOstar Plus with Voyager v2405 software, BMG Labtech) at 380 nm excitation and 460 nm emission. All measurements were performed in triplicate (n = 3).
Data analysis was performed in GraphPad Prism (v9.3.1; GraphPad Software, La Jolla, CA) using the built‐in Michaelis–Menten model for Z‐AAN‐AMC and the substrate inhibition model for Z‐VAN‐AMC. Data points corresponding to 23.73 μM Z‐VAN‐AMC were excluded from analysis, as a linear fit of the initial slope was not possible. Standard errors of the curve fits are reported for all fitted parameters.

AtLEGβ = details: ref Dall et al., [2020]; cited from earlier work
From the text: To probe non‐prime side specificity, we constructed a second peptide library using the format XXXN‐CL, fixing P1' as cysteine and P2' as leucine, based on the highest‐scoring sequences from the prime‐side screen. […] Thr and Val were especially well tolerated, a trend that persisted when P2 was fixed as Ala and P3/P4 were varied (Figure S7b). These predictions were validated experimentally by comparing AtLEGβ affinity for Z‐AAN‐AMC versus Z‐VAN‐AMC fluor ...

[1] = pH 5.5, 37°C, n = 3, ± standard error of fit (Figure 9)

Km (human legumain (hLEG); n = 3, ± standard error of fit) [µM] | Km (human legumain (hLEG); n = 3, ± standard error of fit, listed as Z-VAN-AMC) [µM] | Vmax ratio Z-VAN-AMC vs Z-AAN-AMC (human legumain (hLEG); pH 5.5, 37°C) | Vmax (human legumain (hLEG); pH 5.5, 37°C, n = 3) [RFU/s] | Vmax (human legumain (hLEG); [1]) [RFU/sec] | Ki (human legumain (hLEG); pH 5.5, 37°C, substrate inhibition model, n = 3, ± standard error of fit) [µM] | Km (human legumain (hLEG); n = 3, ± standard error of fit, listed as Z-AAN-AMC) [µM] | Compound | Km (AtLEGβ) [µM]
~20 | 19.6 ± 5.32 | ~ 20 fold | 7800 | 7776 ± 1591 | 16.2 ± 4.5 |  | Cc1cc(=O)oc2cc(NC(=O)[C@H](CC(N)=O)NC(=O)[C@H](C)NC(=O)[C@@H](NC(=O)OCc3ccccc3)C(C)C)ccc12 [Z‐VAN‐AMC, benzyloxycarbonyl‐Val‐Ala‐Asn‐7‐amino‐4‐methylcoumarin] (Cbz-Val-Ala-Asn-{AMC}) | 57 ± 3
55 |  |  | 400 | 399.6 ± 8.6 |  | 55.5 ± 2.4 | benzyloxycarbonyl‐Ala‐Ala‐Asn‐7‐amino‐4‐methylcoumarin [Z‐AAN‐AMC] | 337 ± 3
